Measured values published in PMC12526720, “Hydralazine inhibits cysteamine dioxygenase to treat preeclampsia and senesce glioblastoma” (Science Advances, 2024).
Structures can show the parent of a compound that is named as a salt.

What was measured:
[1] = biological target: T1, 2-aminoethanethiol dioxygenase (ADO) (Homo sapiens, UniProt Q96SZ5); experiment: O2 consumption (oxygen electrode) with purified Fe(II)•ADO, global fit; EPR of Co(II)•ADO also supports binding; assay type: biochemical
T1 construct: WT hADO (NP_116193.2), His6 tag cleaved with TEV
T1 sequence (Q96SZ5 1-270): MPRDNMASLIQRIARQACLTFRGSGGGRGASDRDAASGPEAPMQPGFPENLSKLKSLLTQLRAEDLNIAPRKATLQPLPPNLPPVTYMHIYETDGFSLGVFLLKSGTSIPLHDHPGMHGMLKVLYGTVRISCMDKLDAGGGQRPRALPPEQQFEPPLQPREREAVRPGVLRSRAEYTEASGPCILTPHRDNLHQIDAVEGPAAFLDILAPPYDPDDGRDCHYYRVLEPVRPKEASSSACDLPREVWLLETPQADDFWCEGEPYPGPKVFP

mouse ADO = biological target: T2, mouse ADO (Mus musculus, UniProt Q6PDY2); experiment: quantitative chemoproteomics in RAW […] and Neuro 2a cells, and in mouse heart and brain; assay type: cell-based
T2 construct: endogenous
T2 sequence (Q6PDY2 1-256): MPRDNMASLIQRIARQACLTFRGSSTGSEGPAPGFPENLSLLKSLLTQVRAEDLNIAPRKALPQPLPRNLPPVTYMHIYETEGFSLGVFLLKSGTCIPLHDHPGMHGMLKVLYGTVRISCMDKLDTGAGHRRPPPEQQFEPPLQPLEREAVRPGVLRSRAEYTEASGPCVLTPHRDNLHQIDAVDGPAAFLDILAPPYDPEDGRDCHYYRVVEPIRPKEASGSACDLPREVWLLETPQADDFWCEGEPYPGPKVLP

SMILES	Ki [1] [µM]	quantitative chemoproteomics in RAW 264.7 and Neuro 2a cells, and in mouse heart (mouse ADO)
NNc1nncc2ccccc12 [HYZ, Hydralazine]	2.48 ± 0.42	–
C#CCOCc1ccc2c(NN)nncc2c1 [HYZyne, 1-hydrazineyl-6-((prop-2-yn-1-yloxy)methyl)phthalazine hydrochloride]	–	mouse ADO was also identified as a primary, high-reactivity, and high-stoichiometry target of HYZyne in both mouse cell types
